Assay results reported in patent publication US20150284385A1, “CERTAIN DIPEPTIDYL PEPTIDASE INHIBITORS” (SHANGHAI FOCHON PHARMACEUTICAL CO LTD, priority 2012, published 2015).
Where two headings read alike, the source gives them in different places.

How the values were obtained:
Recombinant human DPP-IV = Recombinant human DPP-IV (Homo sapiens, UniProt P27487); experiment: DPP-IV assay in vitro (H-Ala-Pro-AFC fluorescence); type: biochemical; settings: 30 min pre-incubation, H-Ala-Pro-AFC 50 μM
Method: DPP-IV Assay Solutions of test compounds in varying concentrations (10^−5 mol/L, 10^−6 mol/L, 10^−7 mol/L, 10^−8 mol/L, 10^−9 mol/L, 10^−10 mol/L, 10^−11 mol/L, and 10^−12 mol/L) were prepared in dimethyl sulfoxide (DMSO) and then diluted into assay buffer comprising: 10 mM Tris-HCl pH 8.0, 0.2 M NaCl, and 0.1% BSA. Recombinant human DPP-IV (7.8 ng/ml final concentration) was added to the dilutions and pre-incubated for 30 mins at room temperature before the reaction was initiated with H-Ala-Pro-AFC (50 μM final concentration). The total volume of the reaction mixture was 100 μl.
Inhibition constants (IC50) were calculated by GraphPad Prism.

DPP-4 = target: T1, DPP-4 (Mus musculus, UniProt P28843); experiment: Plasma DPP-4 activity in mice after oral dosing; type: in vivo, ICR mice; settings: read-out: DPP-4 Relative activity %; for activity at 1 mg/kg: oral 1 mg/kg; for activity at 3 mg/kg: mice plasma, oral 3 mg/kg
T1 construct: Blood sample was processed to obtain plasma; from tissue; host or cells: plasma of male ICR mice
Method: Some of the exemplary compounds were tested in mice to assess inhibition of DPP-4 activity via plasma DPP-4 activity. Male ICR mice (25-30 g) were used for this study. All the mice were fasted at least 3 hours before study. Mice (n=6/group) received vehicle or at least one of the exemplary compounds by oral gavage. The dosing solutions were 0.15 mg/ml for the 3 mg/kg. Dosing volume was 20 mL/kg of body weight for all doses. The vehicle was distilled water. […] Blood sample was processed to obtain plasma (2000 g, 5 min, 4° C.) within 15 min after sampling.
Plasma was collected and tested by fluoremetry. Before the testing, 80 mM MgCl2 buffer was added into the 5 uL serum samples and pre-incubation for 5 minutes at room temperature, then […] of 0.1 mM substrate Gly-Pro-AMC and 20 μL of buffer were added into them. The fluorescence of the mixture was measured every 3 minutes after mixing (excitation at 380 nm; emission at 460 nm). After 6 times of measurements, a time-fluorescence cure was obtained. The slope of the curve would be the activity of DPP-4 in serum. The DPP-4 activity before administration was 100%. The relative activity of DPP-4 in serum was calculated using the formula below:
Relative DPP-4activity=DPP-4activity after dosing/DPP-4activity before dosing×100%.

[1] = Table 4 Test 1, mice plasma, 1 h after dosing
[2] = Table 4 Test 1, mice plasma, 2 h after dosing
[3] = Table 4 Test 1, mice plasma, 4 h after dosing
[4] = Table 4 Test 1, mice plasma, 6 h after dosing
[5] = Table 4 Test 1, mice plasma, 9 h after dosing
[6] = Table 3, mice plasma, 1 h after dosing
[7] = Table 3, mice plasma, 2 h after dosing
[8] = Table 3, mice plasma, 4 h after dosing
[9] = Table 3, mice plasma, 6 h after dosing
[10] = Table 3, mice plasma, 9 h after dosing
[11] = Table 3, mice plasma, 12 h after dosing
[12] = Table 3, mice plasma, 24 h after dosing
[13] = Table 4 Test 1, mice plasma, 12 h after dosing
[14] = Table 4 Test 1, mice plasma, 24 h after dosing
[15] = Table 4 Test 3, mice plasma, 1 h after dosing
[16] = Table 4 Test 3, mice plasma, 2 h after dosing
[17] = Table 4 Test 3, mice plasma, 4 h after dosing
[18] = Table 4 Test 3, mice plasma, 6 h after dosing
[19] = Table 4 Test 3, mice plasma, 9 h after dosing
[20] = Table 4 Test 3, mice plasma, 12 h after dosing
[21] = Table 4 Test 3, mice plasma, 24 h after dosing

T1 sequence (P28843 37-760 limits assumed): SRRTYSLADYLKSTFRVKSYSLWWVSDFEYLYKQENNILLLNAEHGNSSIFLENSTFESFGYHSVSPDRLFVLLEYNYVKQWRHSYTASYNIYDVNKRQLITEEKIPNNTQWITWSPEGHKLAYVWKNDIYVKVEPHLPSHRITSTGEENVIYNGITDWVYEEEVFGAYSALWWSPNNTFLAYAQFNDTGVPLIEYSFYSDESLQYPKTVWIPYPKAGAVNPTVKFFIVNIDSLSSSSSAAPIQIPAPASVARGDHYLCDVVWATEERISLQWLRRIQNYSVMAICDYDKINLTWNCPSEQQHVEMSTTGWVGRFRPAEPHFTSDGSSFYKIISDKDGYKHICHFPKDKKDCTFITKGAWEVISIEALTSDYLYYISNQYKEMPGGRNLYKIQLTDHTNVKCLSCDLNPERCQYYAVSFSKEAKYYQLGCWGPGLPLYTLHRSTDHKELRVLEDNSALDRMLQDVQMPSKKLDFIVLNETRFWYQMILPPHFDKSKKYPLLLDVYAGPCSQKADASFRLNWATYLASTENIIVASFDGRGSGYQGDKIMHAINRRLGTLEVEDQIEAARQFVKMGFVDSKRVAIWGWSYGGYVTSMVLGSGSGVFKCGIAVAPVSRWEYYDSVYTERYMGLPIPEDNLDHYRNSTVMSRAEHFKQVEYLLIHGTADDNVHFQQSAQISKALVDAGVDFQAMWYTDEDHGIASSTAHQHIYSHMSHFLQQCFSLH
Sequence of Recombinant human DPP-IV (P27487 whole entry): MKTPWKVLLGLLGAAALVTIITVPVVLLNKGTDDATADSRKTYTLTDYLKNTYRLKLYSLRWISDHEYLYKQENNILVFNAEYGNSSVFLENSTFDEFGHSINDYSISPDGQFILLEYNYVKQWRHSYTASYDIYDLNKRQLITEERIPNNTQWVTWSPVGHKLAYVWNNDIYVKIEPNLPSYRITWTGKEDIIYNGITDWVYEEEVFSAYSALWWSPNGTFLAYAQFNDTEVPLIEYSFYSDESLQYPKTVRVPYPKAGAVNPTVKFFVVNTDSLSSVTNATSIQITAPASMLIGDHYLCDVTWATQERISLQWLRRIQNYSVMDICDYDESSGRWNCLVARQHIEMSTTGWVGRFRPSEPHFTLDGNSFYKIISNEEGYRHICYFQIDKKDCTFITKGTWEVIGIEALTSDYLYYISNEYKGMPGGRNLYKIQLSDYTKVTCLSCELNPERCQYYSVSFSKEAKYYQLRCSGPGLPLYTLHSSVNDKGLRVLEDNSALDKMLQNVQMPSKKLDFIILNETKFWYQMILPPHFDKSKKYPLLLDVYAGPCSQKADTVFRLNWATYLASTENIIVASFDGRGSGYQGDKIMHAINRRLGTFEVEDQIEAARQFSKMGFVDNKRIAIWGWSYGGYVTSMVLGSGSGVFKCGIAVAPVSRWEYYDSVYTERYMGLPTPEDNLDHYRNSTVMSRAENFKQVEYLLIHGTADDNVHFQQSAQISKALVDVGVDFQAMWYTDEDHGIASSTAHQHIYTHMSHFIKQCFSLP

## Cn1ncnc1-c1ccn2c3c(nc2c1)C[C@H](c1cc(F)c(F)cc1F)[C@@H](N)C3 [Example 9, (7R,8S)-3-(1-Methyl-1H-1,2,4-triazol-5-yl)-7-(2,4,5-trifluorophenyl)-6,7,8,9-tetrahydrobenzo[4,5]imidazo[1,2-a]pyridine-8-amine]
Recombinant human DPP-IV
  IC50: 2 nM

## N[C@H]1Cc2c(nc3cc(-c4nc[nH]n4)ccn23)C[C@@H]1c1cc(F)c(F)cc1F [Example 7, (7R,8S)-3-(1H-1,2,4-Triazol-3-yl)-7-(2,4,5-trifluorophenyl)-6,7,8,9-tetrahydrobenzo[4,5]imidazo[1,2-a]pyridine-8-amine]
Recombinant human DPP-IV
  IC50: 0.9 nM

## Cc1n[nH]c(-c2ccn3c4c(nc3c2)C[C@H](c2cc(F)c(F)cc2F)[C@@H](N)C4)n1 [Example 8, (7R,8S)-3-(3-methyl-1H-1,2,4-Triazol-5-yl)-7-(2,4,5-trifluorophenyl)-6,7,8,9-tetrahydrobenzo[4,5]imidazo[1,2-a]pyridine-8-amine]
Recombinant human DPP-IV
  IC50: 1.7 nM

## Cc1noc(-c2ccn3c4c(nc3c2)C[C@H](c2cc(F)c(F)cc2F)[C@@H](N)C4)n1 [Example 6, (7R,8S)-3-(3-Methyl-1,2,4-oxadiazol-5-yl)-7-(2,4,5-trifluorophenyl)-6,7,8,9-tetrahydrobenzo[4,5]imidazo[1,2-a]pyridin-8-amine]
Recombinant human DPP-IV
  IC50: 1.9 nM
DPP-4; [1]
  activity at 1 mg/kg: 16.9 ± 1.4%
DPP-4; [2]
  activity at 1 mg/kg: 15.9 ± 1.9%
DPP-4; [3]
  activity at 1 mg/kg: 15.7 ± 1%
DPP-4; [4]
  activity at 1 mg/kg: 16 ± 1.2%
DPP-4; [5]
  activity at 1 mg/kg: 19.5 ± 1.8%

## Cn1nnc(-c2ccn3c4c(nc3c2)C[C@H](c2cc(F)c(F)cc2F)[C@@H](N)C4)n1 [Example 11, (7R,8S)-3-(2-methyl-2H-tetrazol-5-yl)-7-(2,4,5-trifluorophenyl)-6,7,8,9-tetrahydrobenzo[4,5]imidazo[1,2-a]pyridin-8-amine]
Recombinant human DPP-IV
  IC50: 3 nM
DPP-4; [6]
  activity at 1 mg/kg: 9 ± 1.4%
DPP-4; [7]
  activity at 1 mg/kg: 11.5 ± 1.1%
DPP-4; [8]
  activity at 1 mg/kg: 10.9 ± 2.8%
DPP-4; [9]
  activity at 1 mg/kg: 11.5 ± 0.5%
DPP-4; [10]
  activity at 1 mg/kg: 10 ± 1.3%
DPP-4; [11]
  activity at 1 mg/kg: 11 ± 2%
DPP-4; [12]
  activity at 1 mg/kg: 14.5 ± 2.2%
DPP-4; [1]
  activity at 1 mg/kg: 9 ± 1.4%
DPP-4; [2]
  activity at 1 mg/kg: 11.5 ± 1.1%
DPP-4; [3]
  activity at 1 mg/kg: 10.9 ± 2.8%
DPP-4; [4]
  activity at 1 mg/kg: 11.5 ± 0.5%
DPP-4; [5]
  activity at 1 mg/kg: 10 ± 1.3%
DPP-4; [13]
  activity at 1 mg/kg: 11 ± 2.2%
DPP-4; [14]
  activity at 1 mg/kg: 14.5 ± 2.2%

## N[C@H]1Cc2c(nc3cc(-c4ncno4)ccn23)C[C@@H]1c1cc(F)c(F)cc1F [Example 5, (7R,8S)-3-(1,2,4-Oxadiazol-5-yl)-7-(2,4,5-trifluorophenyl)-6,7,8,9-tetrahydrobenzo[4,5]imidazo[1,2-a]pyridine-8-amine]
Recombinant human DPP-IV
  IC50: 1 nM

## N[C@H]1Cc2c(nc3cc(-c4nnco4)ccn23)C[C@@H]1c1cc(F)c(F)cc1F [Example 1, (7R,8S)-3-(1,3,4-Oxadiazol-2-yl)-7-(2,4,5-trifluorophenyl)-6,7,8,9-tetrahydrobenzo[4,5]imidazo[1,2-a]pyridine-8-amine]
Recombinant human DPP-IV
  IC50: 0.8 nM
DPP-4; [15]
  activity at 1 mg/kg: 11.9 ± 1.2%
DPP-4; [16]
  activity at 1 mg/kg: 7.4 ± 1%
DPP-4; [17]
  activity at 1 mg/kg: 8.6 ± 0.8%
DPP-4; [18]
  activity at 1 mg/kg: 8.4 ± 1.3%
DPP-4; [19]
  activity at 1 mg/kg: 9 ± 1.2%
DPP-4; [20]
  activity at 1 mg/kg: 8.8 ± 0.9%
DPP-4; [21]
  activity at 1 mg/kg: 14.4 ± 1.8%
DPP-4; 1 h after dosing
  activity at 3 mg/kg: 38.7 ± 4.2%
DPP-4; 2 h after dosing
  activity at 3 mg/kg: 34.9 ± 3%
DPP-4; 3 h after dosing
  activity at 3 mg/kg: 31.2 ± 2.3%
DPP-4; 5 h after dosing
  activity at 3 mg/kg: 39.2 ± 3.3%

## NC(=O)c1ccn2c3c(nc2c1)C[C@H](c1cc(F)c(F)cc1F)[C@@H](N)C3 [Refference 1, (7R,8S)-8-amino-7-(2,4,5-trifluorophenyl)-6,7,8,9-tetrahydrobenzo[4,5]imidazo[1,2-a]pyridine-3-carboxamide, reference compound]
DPP-4; [1]
  activity at 1 mg/kg: 20.5 ± 3%
DPP-4; [2]
  activity at 1 mg/kg: 18.1 ± 2.2%
DPP-4; [3]
  activity at 1 mg/kg: 19.9 ± 2%
DPP-4; [4]
  activity at 1 mg/kg: 25.3 ± 2%
DPP-4; [5]
  activity at 1 mg/kg: 33.3 ± 1.5%
DPP-4; [13]
  activity at 1 mg/kg: 49.5 ± 2.8%
DPP-4; [14]
  activity at 1 mg/kg: 90.7 ± 3.2%
DPP-4; Table 4 Test 2, mice plasma, 1 h after dosing
  activity at 1 mg/kg: 15.5 ± 1.1%
DPP-4; Table 4 Test 2, mice plasma, 2 h after dosing
  activity at 1 mg/kg: 16.5 ± 2%
DPP-4; Table 4 Test 2, mice plasma, 4 h after dosing
  activity at 1 mg/kg: 14.9 ± 2.9%
DPP-4; Table 4 Test 2, mice plasma, 6 h after dosing
  activity at 1 mg/kg: 23.3 ± 3.8%
DPP-4; Table 4 Test 2, mice plasma, 9 h after dosing
  activity at 1 mg/kg: 34.5 ± 2.7%
DPP-4; Table 4 Test 2, mice plasma, 24 h after dosing
  activity at 1 mg/kg: 91.1 ± 4.3%
DPP-4; [15]
  activity at 1 mg/kg: 17.5 ± 1.4%
DPP-4; [16]
  activity at 1 mg/kg: 17 ± 1.7%
DPP-4; [17]
  activity at 1 mg/kg: 22 ± 2.1%
DPP-4; [18]
  activity at 1 mg/kg: 33.2 ± 2.7%
DPP-4; [19]
  activity at 1 mg/kg: 42.5 ± 2.2%
DPP-4; [20]
  activity at 1 mg/kg: 58 ± 2.6%
DPP-4; [21]
  activity at 1 mg/kg: 81.9 ± 7.4%

## Cn1nc(-c2ccn3c4c(nc3c2)C[C@H](c2cc(F)c(F)cc2F)[C@@H](N)C4)oc1=O [Example 13, 5-((7R,8S)-8-Amino-7-(2,4,5-trifluorophenyl)-6,7,8,9-tetrahydrobenzo[4,5]imidazo[1,2-a]pyridin-3-yl)-3-methyl-1,3,4-oxadiazol-2(3H)-one]
DPP-4; [6]
  activity at 1 mg/kg: 8.5 ± 2.2%
DPP-4; [7]
  activity at 1 mg/kg: 5 ± 1.7%
DPP-4; [8]
  activity at 1 mg/kg: 7 ± 2.7%
DPP-4; [9]
  activity at 1 mg/kg: 4.4 ± 2.3%
DPP-4; [10]
  activity at 1 mg/kg: 6.1 ± 1.7%
DPP-4; [11]
  activity at 1 mg/kg: 8.5 ± 1.3%
DPP-4; [12]
  activity at 1 mg/kg: 20.2 ± 0.6%
DPP-4; [15]
  activity at 1 mg/kg: 8.5 ± 2.2%
DPP-4; [16]
  activity at 1 mg/kg: 5 ± 1.7%
DPP-4; [17]
  activity at 1 mg/kg: 7 ± 2.7%
DPP-4; [18]
  activity at 1 mg/kg: 4.4 ± 2.3%
DPP-4; [19]
  activity at 1 mg/kg: 6.1 ± 1.7%
DPP-4; [20]
  activity at 1 mg/kg: 8.5 ± 1.3%
DPP-4; [21]
  activity at 1 mg/kg: 20.2 ± 0.6%

## N[C@H]1Cc2c(nc3cc(-c4n[nH]c(=O)o4)ccn23)C[C@@H]1c1cc(F)c(F)cc1F [Example 12, 5-((7R,8S)-8-Amino-7-(2,4,5-trifluorophenyl)-6,7,8,9-tetrahydrobenzo[4,5]imidazo[1,2-a]pyridin-3-yl)-1,3,4-oxadiazol-2(3H)-one]
DPP-4; [6]
  activity at 1 mg/kg: 7.4 ± 1.2%
DPP-4; [7]
  activity at 1 mg/kg: 7 ± 1.1%
DPP-4; [8]
  activity at 1 mg/kg: 6.4 ± 1.9%
DPP-4; [9]
  activity at 1 mg/kg: 10.5 ± 1.7%
DPP-4; [10]
  activity at 1 mg/kg: 10.1 ± 1.2%
DPP-4; [11]
  activity at 1 mg/kg: 15 ± 1.6%
DPP-4; [12]
  activity at 1 mg/kg: 38.3 ± 5.6%
DPP-4; [15]
  activity at 1 mg/kg: 7.4 ± 1.2%
DPP-4; [16]
  activity at 1 mg/kg: 7 ± 1.1%
DPP-4; [17]
  activity at 1 mg/kg: 6.4 ± 1.9%
DPP-4; [18]
  activity at 1 mg/kg: 10.5 ± 1.7%
DPP-4; [19]
  activity at 1 mg/kg: 10.1 ± 1.2%
DPP-4; [20]
  activity at 1 mg/kg: 15 ± 1.6%
DPP-4; [21]
  activity at 1 mg/kg: 38.3 ± 5.6%

## N[C@H]1Cc2c(nc3cc(-c4nnn[nH]4)ccn23)C[C@@H]1c1cc(F)c(F)cc1F [Example 10, (7R,8S)-3-(1H-Tetrazol-5-yl)-7-(2,4,5-trifluorophenyl)-6,7,8,9-tetrahydrobenzo[4,5]imidazo[1,2-a]pyridin-8-amine]
Recombinant human DPP-IV
  IC50: 0.6 nM
